Measured values as given in PubChem BioAssay AID1259407 (Chemical Carcinogenesis Research Information System (CCRIS), 2018).
Calls of active or inactive are those of the source. The rule behind the calls is not given here.

System: CCRIS mutagenicity, Ames/micronucleus/aberration tests
Assay: CCRIS mutagenicity studies
[1] = Test System: AMES SALMONELLA TYPHIMURIUM, Strain/Indicator: TA1535, Metabolic Activation: NONE, Method: STANDARD PLATE
[2] = Test System: AMES SALMONELLA TYPHIMURIUM, Strain/Indicator: TA1535, Metabolic Activation: RAT, LIVER, S-9, AROCLOR 1254, Method: STANDARD PLATE
[3] = Test System: AMES SALMONELLA TYPHIMURIUM, Strain/Indicator: TA98, Metabolic Activation: NONE, Method: STANDARD PLATE
[4] = Test System: AMES SALMONELLA TYPHIMURIUM, Strain/Indicator: TA100, Metabolic Activation: NONE, Method: STANDARD PLATE
[5] = Test System: AMES SALMONELLA TYPHIMURIUM, Strain/Indicator: TA100, Metabolic Activation: RAT, LIVER, S-9, AROCLOR 1254, Method: STANDARD PLATE

Measured: mutagenic call

CN(C)Nc1nc(-c2ccc([N+](=O)[O-])o2)cs1
active: Test System: AMES SALMONELLA TYPHIMURIUM, Strain/Indicator: TA100, Metabolic Activation: RAT, LIVER, S-9, KC500 OR PHENOBARBITAL, Method: LIQUID SUSPENSION active; positive | Test System: E. COLI WP2, Strain/Indicator: WP2, Metabolic Activation: NONE, Method: SPOT active; positive

COC(=O)/C(C#N)=C/c1ccccc1Br
inactive: [1] inactive; negative | [2] inactive; negative

Nc1nccs1
active: Test System: AMES SALMONELLA TYPHIMURIUM, Strain/Indicator: TA98, Metabolic Activation: RAT, LIVER, S-9, AROCLOR 1254, HAMSTER, LIVER, S-9, AROCLOR 1254, Method: STANDARD PLATE active; positive | Test System: AMES SALMONELLA TYPHIMURIUM, Strain/Indicator: TA1538, Metabolic Activation: RAT, LIVER, S-9, AROCLOR 1254, HAMSTER, LIVER, S-9, AROCLOR 1254, Method: STANDARD PLATE active; positive | Test System: MOUSE LYMPHOMA, Strain/Indicator: L5178Y (TK+/TK-), Metabolic Activation: NONE, Method: SUSPENSION/PLATE active; positive. reevaluation of results: equivocal | Test System: MOUSE LYMPHOMA, Strain/Indicator: L5178Y (TK+/TK-), Metabolic Activation: RAT, LIVER, S-9, AROCLOR 1254, Method: SUSPENSION/PLATE active; positive. reevaluation of results: equivocal

Nc1ccc(-c2ccc(N)c(Br)c2)cc1Br
inactive: [4] inactive; negative
active: Test System: AMES SALMONELLA TYPHIMURIUM, Strain/Indicator: TA98(1,8-DNP6), Metabolic Activation: NONE, Method: STANDARD PLATE active; positive | Test System: AMES SALMONELLA TYPHIMURIUM, Strain/Indicator: TA98(1,8-DNP6), Metabolic Activation: S-9, Method: STANDARD PLATE active; positive | Test System: AMES SALMONELLA TYPHIMURIUM, Strain/Indicator: TA98/1,8-DNP6, Metabolic Activation: HAMSTER, LIVER, S-9, Method: PREINCUBATION active; positive | Test System: AMES SALMONELLA TYPHIMURIUM, Strain/Indicator: TA98/1,8-DNP6, Metabolic Activation: NONE, Method: PREINCUBATION active; positive | Test System: AMES SALMONELLA TYPHIMURIUM, Strain/Indicator: TA98, Metabolic Activation: HAMSTER, LIVER, S-9, Method: PREINCUBATION active; positive | Test System: AMES SALMONELLA TYPHIMURIUM, Strain/Indicator: TA98, Metabolic Activation: NONE, Method: PREINCUBATION active; positive | [3] active; positive | Test System: AMES SALMONELLA TYPHIMURIUM, Strain/Indicator: TA98, Metabolic Activation: S-9, Method: STANDARD PLATE active; positive | Test System: AMES SALMONELLA TYPHIMURIUM, Strain/Indicator: TA100, Metabolic Activation: S-9, Method: STANDARD PLATE active; positive

CCN(N)c1ccccc1
active: [4] active; positive | Test System: AMES SALMONELLA TYPHIMURIUM, Strain/Indicator: TA102, Metabolic Activation: RAT, LIVER, S-9, AROCLOR 1254, Method: STANDARD PLATE active; positive
inactive: [5] inactive; negative | Test System: AMES SALMONELLA TYPHIMURIUM, Strain/Indicator: TA102, Metabolic Activation: NONE, Method: STANDARD PLATE inactive; negative

CCOc1ccccc1OCC1CNCCO1 (stereo not given)
inactive: [3] inactive; negative | Test System: AMES SALMONELLA TYPHIMURIUM, Strain/Indicator: TA98, Metabolic Activation: RAT, LIVER, S-9, AROCLOR 1254, Method: STANDARD PLATE inactive; negative | [4] inactive; negative | [5] inactive; negative | [1] inactive; negative | [2] inactive; negative | Test System: AMES SALMONELLA TYPHIMURIUM, Strain/Indicator: TA1537, Metabolic Activation: NONE, Method: STANDARD PLATE inactive; negative | Test System: AMES SALMONELLA TYPHIMURIUM, Strain/Indicator: TA1537, Metabolic Activation: RAT, LIVER, S-9, AROCLOR 1254, Method: STANDARD PLATE inactive; negative
